{"source": "patent US9562031B1", "about": "“Phenethyldihydrobenzodioxolones and methods of use” (Sequoia Sciences, Inc., priority 2015, dated 2017)", "key": {"TK-10 cells": {"test_system": "TK-10 cells", "experiment": "antiproliferation assay, paclitaxel-resistant TK-10", "assay_type": "cell-based", "settings": "Homo sapiens", "description": "For the antiproliferation assay, NCI-H460 (large cell lung carcinoma) or M14 (amelanotic melanoma) cells were grown in RPMI-1640 with 10% FBS supplemented with L-glutamine and HEPES. Cells were seeded into 96-well plates at 5×10^2 to 5×10^4 cells/well and allowed to adhere overnight; the medium was then removed. A stock solution of test compound in DMSO was diluted in medium to generate a series of working solutions. Aliquots (100 μl) of the working solutions were then added to the appropriate test wells to expose cells to the final concentrations of compound in a total volume of 100 μl. Seven different concentrations were tested, with 2-5 wells per concentration. Camptothecin was used as a positive control; wells containing vehicle without compound were used as negative controls. Plates were kept for 72 h in a 37° C., 5% CO2 incubator. After incubation, viable cells were detected with the CELLTITER 96 AQueous Non-Radioactive Cell Proliferation Assay (Promega), and IC50 values were determined using GraphPad Prism 5 software.\nCompound 4 was tested for antiproliferation activity against several paclitaxel-resistant human cancer cell lines."}, "[1]": {"experiment": "compound concentrations in mouse plasma after IP injection (LC/MS)", "assay_type": "in vivo", "settings": "mice, IP 40 mg/kg, 3-5 h after injection; vehicle 42.97% propylene glycol, 0.23% TWEEN-20, 31.5% PEG400, 15.3% ethanol, 10% water", "description": "The bioavailabilities of certain compounds were examined in mice. Administration of the compounds was performed by intraperitoneal (IP) injection using a vehicle as known to those skilled in the art. To measure compound concentrations in plasma, blood is collected by cardiac puncture at a specified time after […]. It is then centrifuged in a plasma separator tube with NaEDTA/NaF as the anticoagulant, and the resulting plasma is stored at −80° C. For analysis, an internal standard is added to a 200 μL aliquot of plasma, and the aliquot is extracted with ethyl acetate. The ethyl acetate extract is analyzed by LC/MS and quantitated using a standard curve prepared by adding known amounts of test compound and internal standard to 200 μL aliquots of blank mouse plasma.\nMany vehicles can be used to examine bioavailability. […]\nPlasma concentrations were measured for several additional compounds. Table 12 lists plasma concentrations (as a multiple of the compound's IC50 against NCI-H460 cells) measured for these compounds at different time points after injection, along with the vehicle used."}, "[2]": {"test_system": "NCI-H522 (lung) xenograft tumors", "experiment": "tumor growth inhibition, NCI-H522 murine xenograft model", "assay_type": "in vivo, mice", "settings": "IP 40 mg/kg, days 0,1,2,5,6,7,10,11,12", "description": "Tumor growth inhibition of compound 4 was measured in several murine xenograft models, and the results of individual experiments are listed in Table 14. Tumors were initiated by subcutaneous injection of either tumor cells from cell culture or tumor fragments from continuous in vivo passage. When tumors reached volumes between approximately 100 and 200 mm^3, the mice were divided into vehicle and treatment groups. Compound or vehicle was administered by IP injection in a volume of 5-10 mL/kg.\nChanges in tumor weight (delta weights) for each treated (T) and control (C) group are calculated for each day tumors are measured by subtracting the median tumor weight on the first day of treatment (staging day) from the median tumor weight on the specified observation day. These values are used to calculate a percent T/C as follows: % T/C=(delta T/delta C)×100. The optimal T/C is the minimal value obtained after the first treatment."}, "A549 cells": {"test_system": "A549 cells", "experiment": "NCI-60 panel antiproliferation, A549", "assay_type": "cell-based, human", "settings": "Homo sapiens, NCI 60-cell panel", "description": "(§1) Bifidenone and Compound 37 were tested for antiproliferation activity against the NCI-60 panel of cancer cell lines. COMPARE analysis was then conducted to compare the activity “fingerprint” of bifidenone to those of known classes of compounds (Zhou, B.-N., Hoch, J. M., Johnson, R. K., Mattern, M. R., Eng, W.-K., Ma, J., Hecht, S. M., Newman, D. J., Kingston, D. G. I., 2000. Use of COMPARE Analysis to Discover New Natural Product Drugs: Isolation of Camptothecin and 9-Methoxycamptothecin from a New Source. Journal of Natural Products 63, 1273-1276.)."}, "BT-549 cells": {"test_system": "BT-549 cells", "experiment": "NCI-60 panel antiproliferation, BT-549", "assay_type": "cell-based, human", "settings": "Homo sapiens, NCI 60-cell panel", "description": "as §1"}, "HCT-15 cells": {"test_system": "HCT-15 cells", "experiment": "NCI-60 panel antiproliferation, HCT-15", "assay_type": "cell-based, human", "settings": "Homo sapiens, NCI 60-cell panel", "description": "as §1"}, "HCT-116 cells": {"test_system": "HCT-116 cells", "experiment": "NCI-60 panel antiproliferation, HCT-116", "assay_type": "cell-based, human", "settings": "Homo sapiens, NCI 60-cell panel", "description": "as §1"}, "HL-60 cells": {"test_system": "HL-60 cells", "experiment": "NCI-60 panel antiproliferation, HL-60", "assay_type": "cell-based, human", "settings": "Homo sapiens, NCI 60-cell panel", "description": "as §1"}, "K-562 cells": {"test_system": "K-562 cells", "experiment": "NCI-60 panel antiproliferation, K-562", "assay_type": "cell-based, human", "settings": "Homo sapiens, K562, NCI 60-cell panel", "description": "as §1"}, "MDA-MB-231 cells": {"test_system": "MDA-MB-231 cells", "experiment": "NCI-60 panel antiproliferation, MDA-MB-231", "assay_type": "cell-based, human", "settings": "Homo sapiens, NCI 60-cell panel", "description": "as §1"}, "MDA-MB-468 cells": {"test_system": "MDA-MB-468 cells", "experiment": "NCI-60 panel antiproliferation, MDA-MB-468", "assay_type": "cell-based, human", "settings": "Homo sapiens, NCI 60-cell panel", "description": "as §1"}, "MOLT-4 cells": {"test_system": "MOLT-4 cells", "experiment": "NCI-60 panel antiproliferation, MOLT-4", "assay_type": "cell-based, human", "settings": "Homo sapiens, NCI 60-cell panel", "description": "as §1"}, "NCI-H226 cells": {"test_system": "NCI-H226 cells", "experiment": "NCI-60 panel antiproliferation, NCI-H226", "assay_type": "cell-based, human", "settings": "Homo sapiens, NCI 60-cell panel", "description": "as §1"}, "PC-3 cells": {"test_system": "PC-3 cells", "experiment": "NCI-60 panel antiproliferation, PC-3", "assay_type": "cell-based, human", "settings": "Homo sapiens, NCI 60-cell panel", "description": "as §1"}, "RPMI-8226 cells": {"test_system": "RPMI-8226 cells", "experiment": "NCI-60 panel antiproliferation, RPMI-8226", "assay_type": "cell-based, human", "settings": "Homo sapiens, NCI 60-cell panel", "description": "as §1"}, "SK-MEL-28 cells": {"test_system": "SK-MEL-28 cells", "experiment": "NCI-60 panel antiproliferation, SK-MEL-28", "assay_type": "cell-based, human", "settings": "Homo sapiens, NCI 60-cell panel", "description": "as §1"}}}
{"smiles": "C=CC[C@H]1C[C@]2([C@H](C)Cc3cc(O)c(OC)cc3F)OCOC2=CC1=O", "note": "(relative stereo) [Compound 4, 6-allyl-7a-(1-(2-fluoro-5-hydroxy-4-methoxyphenyl)propan-2-yl)-7,7a-dihydrobenzo[d][1,3]dioxol-5(6H)-one]", "values": [{"measurement": "IC50", "setting": "TK-10 cells", "value": 7, "unit": "nM"}, {"measurement": "plasma concentration relative to IC50 against NCI-H460", "setting": "[1]", "value": "below its IC50"}, {"measurement": "Maximum Mean Body Weight Loss", "setting": "[2]", "value": 5, "unit": "%"}, {"measurement": "Optimal T/C", "setting": "[2]", "value": 13, "unit": "%"}]}
{"smiles": "C=CC[C@H]1C[C@]2([C@@H](C)Cc3ccc(OC)c(F)c3)OCOC2=CC1=O", "note": "[Compound 37, (6S,7aR)-6-allyl-7a-((S)-1-(3-fluoro-4-methoxyphenyl)propan-2-yl)-7,7a-dihydrobenzo[d][1,3]dioxol-5(6H)-one]", "values": [{"measurement": "IC50", "setting": "A549 cells", "value": 55, "unit": "nM"}, {"measurement": "IC50", "setting": "BT-549 cells", "value": 63, "unit": "nM"}, {"measurement": "IC50", "setting": "HCT-15 cells", "value": 56, "unit": "nM"}, {"measurement": "IC50", "setting": "HCT-116 cells", "value": 115, "unit": "nM"}, {"measurement": "IC50", "setting": "HL-60 cells", "value": 36, "unit": "nM"}, {"measurement": "IC50", "setting": "K-562 cells", "value": 43, "unit": "nM"}, {"measurement": "IC50", "setting": "MDA-MB-231 cells", "value": 837, "unit": "nM"}, {"measurement": "IC50", "setting": "MDA-MB-468 cells", "value": 59, "unit": "nM"}, {"measurement": "IC50", "setting": "MOLT-4 cells", "value": 97, "unit": "nM"}, {"measurement": "IC50", "setting": "NCI-H226 cells", "value": 141, "unit": "nM"}, {"measurement": "IC50", "setting": "PC-3 cells", "value": 70, "unit": "nM"}, {"measurement": "IC50", "setting": "RPMI-8226 cells", "value": 74, "unit": "nM"}, {"measurement": "IC50", "setting": "SK-MEL-28 cells", "value": 37, "unit": "nM"}]}
